Experiments:
Assay type in all cases: cell-based, human
[1] = test system: 786-O; assay: ATP luminescence proliferation assay, 786-O
Description: (§1) This example generally describes the procedures used to assay the antiproliferative activity of compounds of this invention or their conjugates. Human tumor cell lines were obtained from the American Type Culture Collection (ATCC), P.O. Box 1549, Manassas, Va. 20108, USA, and cultured according to instruction from the ATCC. Cells were seeded at 1.0×10^3 or 1.0×10^4 cells/well in 96-well plates for 3 h for ATP assays or ^3H thymidine assays, respectively. 1:3 serial dilutions of free (unconjugated) compounds or their conjugates were added to the wells. Plates were allowed to incubate for 24 to 72 h. The ^3H thymidine plates were pulsed with 1.0 μCi of ^3H-thymidine per well for the last 24 hours of the total incubation period, harvested, and read on a Top Count Scintillation Counter (Packard Instruments, Meriden, Conn.). ATP levels in the ATP plates were measured using the […]-GLO® Luminescent Cell Viability kit following the manufacturer's manual and read on a GLOMAX® 20/20 luminometer (both from Promega, Madison, Wis., USA). The EC50 values—the concentration at which an agent inhibits or reduces cell proliferation by 50% —were determined using PRISM™ software, version 4.0 (GraphPad Software, La Jolla, Calif., USA).
(§2) Using the ^3H thymidine or the ATP luminescence assay, or both, the activities of compounds of this invention were assayed against the following cancer cell lines: HCT-15 (colorectal cancer, multi-drug resistant (MDR)); Hep3B (liver cancer); LNCaP (prostate cancer, androgen receptor positive (AR^+)); MDA-MB-231 (breast cancer, estrogen receptor, progesterone receptor, and Her2 negative (triple negative)); A2058 (melanoma); U-87 MG (glioblastoma); NCI-H460 (NSCLC); A549 (NSCLC); HPAC (pancreatic cancer, primary); PC3 (prostate cancer, AR); BT474 (breast cancer, Her2 highly positive (Her2hi)); SKOV3 (ovarian cancer, Her2hi); 786-O (renal cancer); UO-31 (renal cancer, MDR); NCI-H740 (SCLC); DMS53 (SCLC); SK-BR3 (breast cancer, Her2hi); ZR-75 (breast cancer, estrogen receptor positive); OVCAR3 (ovarian cancer); HL-60 (APL); OVCAR8/Adr (ovarian cancer, MDR); CEM-Cl (ALL); Nomo-1 (AML); RPMI-8226 (MM)); Raji (lymphoma); SW-480 (colorectal cancer, metastatic); SW-620 (colorectal cancer); and H226 (lung cancer). (Not all compounds were assayed against all cell lines.)
(§3) FIGS. 12a and 12b show illustrative plots for ATP luminescence proliferation assays for a second set of compounds of this invention, against HL-60 and 786-O cells, respectively, with an incubation period of 72 h. FIGS. 12c and 12d show the plots for ^3H thymidine proliferation assays for the same set of compounds, again against HL-60 and 786-O cells, respectively, with a 72 h incubation period. In each instance, doxorubicin was used as a comparative compound.
(§4) Table 3 provides the data for the ATP luminescence proliferation assays, with an incubation period of 48, 72, or 96 h, as noted.

[2] = test system: HL-60; assay: ATP luminescence proliferation assay, HL-60
Description: as §1, §2, §3, §4

[3] = test system: OVCAR3; assay: ATP luminescence proliferation assay, OVCAR3; conditions: ATP luminescence, OVCAR3, 48 h incubation; read-out: EC50 OVCAR3 (48 h)
Description: as §1, §2, §4

[4] = test system: HCT-15; assay: ATP luminescence proliferation assay, HCT-15; conditions: ATP luminescence, HCT-15, 72 h incubation; read-out: EC50 HCT-15 (72 h)
Description: as §1, §2, §4

[5] = test system: OVCAR8/Adr; assay: ATP luminescence proliferation assay, OVCAR8/Adr; conditions: 48 h incubation period, read-out: EC50 against the OVACAR8/Adr cell line
Description: as §1, §2, §4

[6] = test system: HL-60; assay: 3H thymidine proliferation assay, HL-60; conditions: Homo sapiens, HL-60, read-out: EC50, HL-60, 3H thymidine method, 72 h incubation
Description: as §1, §2
(§5) Table 2 provides the data for proliferation assays using the ^3H thymidine method, with an incubation period of 72 h.

[7] = test system: 786-O; assay: 3H thymidine proliferation assay, 786-O; conditions: Homo sapiens, 786-0, read-out: EC50, 786-O, 3H thymidine method, 72 h incubation
Description: as §1, §2, §5

[8] = ATP luminescence, 786-O, 72 h incubation, read-out: EC50 786-O (72 h)

With `CCCOCN(C(=O)[C@@H](NC(=O)[C@H]1CCCCN1C)[C@@H](C)CC)[C@H](C[C@@H](OC)c1nc(C(=O)N[C@@H](Cc2ccc(N)cc2)CC(C)C(=O)OCC)cs1)C(C)C` (some centres unmarked) [Compound 135] the EC50 [1, 8] was 0.0129 µM.

`CCOC(=O)C(C)C[C@H](Cc1ccc(N)cc1)NC(=O)c1csc([C@@H](C[C@H](C(C)C)N(COC)C(=O)[C@@H](NC(=O)[C@H]2CCCCN2C)[C@@H](C)CC)OC)n1` (some centres unmarked) [Compound 134] was tested, and the EC50 [1, 8] was 0.00989 µM.

For `CC[C@H](C)[C@H](NC(=O)[C@H]1CCCCN1C)C(=O)N(C)[C@H](C[C@@H](OC(C)=O)c1nc(C(=O)N[C@@H](Cc2ccc(N)cc2)C[C@H](C)C(=O)O)cs1)C(C)C` [Compound 84a], the EC50 ([2]; ATP luminescence, HL-60, 48 h incubation, read-out: EC50 HL-60 (48 h)) was 0.01 to 0.028 µM, the EC50 [3] was 0.00819 µM and the EC50 [4] was 0.138 µM. The EC50 [5] was greater than 0.3 µM and the EC50 ([1]; ATP luminescence, 786-O, 48 h incubation, read-out: EC50 786-O (48 h)) was 0.00612 µM.

Work on `CC[C@H](C)[C@H](NC(=O)[C@H]1CCCCN1C)C(=O)N(COC)[C@H](C[C@@H](OC(C)=O)c1nc(C(=O)N[C@@H](Cc2ccccc2)C(=O)OC)cs1)C(C)C` [(III-q)] yielded an EC50 ([2]; Homo sapiens, HL-60, 72 h, read-out: EC50 HL-60 (72 h), ATP luminescence, HL-60, 72 h incubation) of 0.0143 µM, an EC50 [6] of 0.0151 µM and an EC50 ([1]; Homo sapiens, 786-0, 72 h, read-out: EC50 786-O (72 h), ATP luminescence, 786-O, 72 h incubation) of 0.104 µM. It also gave an EC50 [7] of 0.00761 µM.
